Where a SMILES comes first, the peptide text is derived from it. Primed or numbered codes have the meaning given here. Where no end group is shown, it is not given here. Side-chain parts run from the residue outwards. [ ]: non-standard residue; d: D form. The star is where a group is joined. Glu″ = glutamate linker (Glu-Pal); Palmitoyl = CCCCCCCCCCCCCCCC(=O)*; Ole = not defined here
Tests used:
[1] = tested on: CXCR4-tropic X4-HIV-1 (NL4-3); assay type: cell-based; conditions: for IC50: CXCR4-tropic X4- (NL4-3)
Experimental: The activity of the peptides was estimated by different assays.
The X4-HIV inhibition assay is designed to measure the activity of the inventive peptides by their efficiency of blocking the infection of tissue culture cells by CXCR4-tropic HIV-1 variants.
HIV-1 inhibition assay. […] For infection of TZM-bl cells in presence of inhibitors, cells were seeded at a density of 1×10^5 cells/ml in 70 μl DMEM containing 2.5% FCS. Compounds were diluted in PBS and 10 μl were added. After 15 minutes of incubation cells were inoculated with 20 μl of diluted virus. Infection rates were determined three days later using Gal-Screen system (Applied Biosystems).

[2] = Functional stability assay in human plasma
Experimental: Fourth, the stability of peptides in human plasma and whole human blood was tested (FIG. 4). The functional stability of EPI-X4 (SEQ ID NO.: 1) derivatives was screened using a CXCR4 antibody-based screening approach. Peptides were diluted in full human plasma or blood (>99%) and the functional activity was then measured after either 2 hours or 8 hours and compared to a sample that was not incubated in plasma or blood.
In this test, the peptides were incubated in human plasma for a certain time period.
Stability assay. Whole blood was collected from healthy donors in EDTA tubes and directly used or subsequently centrifuged for 15 min at 2,500×g to obtain plasma. Plasma from 6 donors was pooled and stored in aliquots at −80° C. Compounds were 200-fold diluted in human plasma or whole human blood to reach final concentrations of 20 μM. The t=0 sample was immediately taken and stored at −80° C. Plasma/compound or blood/compound mixture was then transferred to 37° C. and shook at 350 rpm. At given time points samples were taken and stored at −80° C.°. For measuring the functional activity of the plasma/peptide samples, the mixtures were thawed and diluted in ice cold PBS. 12G5-APC antibody competition was then performed as described before. For blood/peptide functional stability, samples were thawed and centrifuged at 14,000 rpm to remove cells and debris. The supernatant was then diluted in PBS and 12G5-antibody competition assay was performed. After the 2 hours incubation, the cells were washed and 50 μl of 1-step-Fix/Lyse solution (Thermo Fisher #00-5333-54) was added for 15 minutes at room temperature. Afterwards cells were washed again and analyzed for bound antibody.

[3] = tested on: CXCL12-induced AKT signaling; assay: ERK/AKT signaling assay in SupT1 cells: AKT phosphorylation; assay type: cell-based; conditions: 10 μM
Experimental: Third, the activity of the claimed EPI-X4 derivatives was tested by the effect on CXCL12/CXCR4-mediated ERK (Extracellular-signal Regulated Kinases) and AKT (a serine/threonine-protein kinase) signaling (FIG. 3). In that assay CXCR4 expressing cells are stimulated with the CXCR4 chemokine-ligand CXCL12, which subsequently leads to phosphorylation of ERK and AKT. Preincubation of cells with CXCR4-antagonists blocks those pathways. […] Two or three independent experiments were carried out in triplicates for each peptide in each assay. The error bars refer to the standard deviation.
ERK/AKT signaling assay. CXCL12 induced ERK and AKT phosphorylation was determined in SupT1 cells. For this, 100,000 cells were seeded per well in a 96-V well plate in 100 μl medium supplemented with 1% FCS. Cells were incubated for 2 hours at 37° C. before 5 μl of compounds were added. After 15 min incubation at 37° C. cells were stimulated by adding 5 μl CXCL12 diluted in PBS to reach a final concentration of 100 ng/ml. Cells were further incubated for 2 min before the reaction was stopped by adding 20 μl of 10% PFA. Cells were fixed for 15 min at 4° C. before PFA was removed and cells permeabilized by adding 100 μl ice cold methanol. After 15 min at 4° C. the methanol was removed, cells were washed and 30 μl primary antibody was added (phospho-p44/42 MAPK (Erk1) (Tyr204)/(Erk2) (Tyr187) (D1H6G) mouse mAb #5726; phosphor-Akt (Ser473) (193H12) rabbit mAb #4058 Cell Signaling) for 1 hour at 4° C. After the antibody was removed and cells were washed secondary antibody was added for 30 min. Cells were washed afterwards and subsequently analyzed by flow cytometry.

[4] = molecular target: CXC chemokine receptor type 4 (CXCR4) (human, UniProt P61073 1-352); assay: cell-based or functional assay
Chain of CXC chemokine receptor type 4 (CXCR4) (P61073 whole entry): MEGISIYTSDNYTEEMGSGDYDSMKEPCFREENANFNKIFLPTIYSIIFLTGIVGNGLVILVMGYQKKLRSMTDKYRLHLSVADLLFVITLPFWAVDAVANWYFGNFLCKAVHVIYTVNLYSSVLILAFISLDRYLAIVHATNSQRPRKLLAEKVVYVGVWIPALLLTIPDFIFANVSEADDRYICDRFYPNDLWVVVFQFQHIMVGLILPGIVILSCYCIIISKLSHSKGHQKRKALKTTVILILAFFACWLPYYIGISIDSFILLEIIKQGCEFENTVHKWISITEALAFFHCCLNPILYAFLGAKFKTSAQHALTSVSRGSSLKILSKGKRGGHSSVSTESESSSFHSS

Molecule: CC[C@H](C)[C@H](N)C(=O)N[C@@H](CC(C)C)C(=O)N[C@@H](CCCNC(=N)N)C(=O)N[C@@H](Cc1c[nH]c2ccccc12)C(=O)N[C@@H](CO)C(=O)N[C@@H](CCCNC(=N)N)C(=O)N[C@@H](CCCCN)C(=O)N[C@@H](Cc1ccccc1)C(=O)N1CCC[C@H]1C(=O)N[C@@H](CS)C(=O)N[C@H](C(=O)N[C@@H](CO)C(=O)O)C(C)C [JM #22] (H-ILRWSRKFPCVS-OH; C-terminus assumed)
- IC50 [1]: < 5 nM

Molecule: CC(C)C[C@H](NC(=O)[C@@H](NC(=O)[C@@H]1CCCN1C(=O)[C@@H](NC(=O)[C@H](CO)NC(=O)[C@@H](NC(=O)[C@H](CCC(N)=O)NC(=O)[C@@H]1CCCN1C(=O)[C@@H](NC(=O)[C@H](CCCCN)NC(=O)[C@H](CCCCN)NC(=O)[C@@H](NC(=O)[C@H](Cc1ccc(O)cc1)NC(=O)[C@H](CCCNC(=N)N)NC(=O)[C@@H](NC(=O)[C@@H](N)CC(C)C)C(C)C)[C@@H](C)O)C(C)C)C(C)C)[C@@H](C)O)[C@@H](C)O)C(=O)O [EPI-X4] (H-LVRYTKKVPQVSTPTL-OH; N-terminus and C-terminus assumed)
- half-life at 20 μM ([2]; human, plasma): 17 min
- reduction of CXCL12-induced AKT signaling [3]: about 40%

Molecule: SC024: PEG-coupled peptide JM #21, average molecular mass 20 kDa (ILRWSRKLPCVS; also: coupled to PEG 20 kDa, site not given here)
- remaining (relative) activity after 8 hours of plasma incubation ([2]; human, plasma, 8 h): 30%
- anti-HIV-1 activity (in words) [1]: comparable to the state of the art CXCR4-antagonist AMD3100 and JM #21

Molecule: c1cc(CN2CCCNCCNCCCNCC2)ccc1CN1CCCNCCNCCCNCC1 [AMD3100, reference compound]
- reduction of CXCL12-induced AKT signaling [3]: about 60%

Molecule: SC029: PEG 20 kDa telechelic peptide conjugate, JM #21 copies coupled to different ends of the polymer (ILRWSRKLPCVS; also: PEG 20 kDa conjugate, peptide copies at both polymer ends, site not given here)
- remaining (relative) activity after 8 hours of plasma incubation ([2]; human, plasma, 8 h): 38%
- anti-HIV-1 activity (in words) [1]: comparable to the state of the art CXCR4-antagonist AMD3100 and JM #21

Molecule: d-LMRWSRKK(Glu-Pal)-NH2 ([dL]MRWSRKK([Glu″-Palmitoyl])-NH2) [JM #195]
- anti-HIV-1 activity (in words) [1]: strongly increased anti-HIV-1 activity

Molecule: d-MLRWSRK(Glu-Pal)-NH2 ([dM]LRWSRK([Glu″-Palmitoyl])-NH2) [JM #196]
- anti-HIV-1 activity (in words) [1]: strongly increased anti-HIV-1 activity

Molecule: CC[C@@H](C)[C@@H](N)C(=O)N[C@@H](CC(C)C)C(=O)N[C@@H](CCCNC(=N)N)C(=O)N[C@@H](Cc1c[nH]c2ccccc12)C(=O)N[C@@H](CO)C(=O)N[C@@H](CCCNC(=N)N)C(=O)N[C@@H](CCCCN)C(=O)N[C@@H](CC(C)C)C(=O)N1CCC[C@H]1C(N)=O [JM #174] (H-[dI]LRWSRKLP-NH2)
- remaining (relative) activity after 8 hours of plasma incubation ([2]; human plasma, 8 hours): 100%

Molecule: CC[C@H](C)[C@H](N)C(=O)N[C@@H](CC(C)C)C(=O)N[C@@H](CCCNC(=N)N)C(=O)N[C@@H](Cc1c[nH]c2ccccc12)C(=O)N[C@@H](CO)C(=O)N[C@@H](CCCNC(=N)N)C(=O)N[C@@H](CCCCN)C(=O)N[C@@H](CCSC)C(=O)N1CCC[C@H]1C(=O)N[C@@H](CS)C(=O)N[C@@H](Cc1ccccc1)C(=O)N[C@@H](CO)C(=O)O [JM #19] (H-ILRWSRKMPCFS-OH; C-terminus assumed)
- IC50 [1]: 5 to 10 nM

Molecule: CC[C@H](C)[C@H](N)C(=O)N[C@@H](CC(C)C)C(=O)N[C@@H](CCCNC(=N)N)C(=O)N[C@@H](Cc1c[nH]c2ccccc12)C(=O)N[C@@H](CO)C(=O)N[C@@H](CCCNC(=N)N)C(=O)N[C@@H](CCCCN)C(=O)N[C@@H](CCSC)C(=O)N1CCC[C@H]1C(=O)N[C@@H](CS)C(=O)N[C@H](C(=O)N[C@@H](CO)C(=O)O)C(C)C [JM #13] (H-ILRWSRKMPCVS-OH; C-terminus assumed)
- IC50 [1]: < 5 nM

Molecule: d-MLRWSRKK(Glu-Pal)-NH2 ([dM]LRWSRKK([Glu″-Palmitoyl])-NH2) [JM #197]
- anti-HIV-1 activity (in words) [1]: strongly increased anti-HIV-1 activity

Molecule: CC[C@H](C)[C@H](N)C(=O)N[C@@H](CC(C)C)C(=O)N[C@@H](CCCNC(=N)N)C(=O)N[C@@H](Cc1c[nH]c2ccccc12)C(=O)N[C@@H](CO)C(=O)N[C@@H](CCCNC(=N)N)C(=O)N[C@@H](CCCCN)C(=O)N[C@@H](CCSC)C(=O)N1CCC[C@H]1C(=O)N[C@@H](CS)C(=O)N[C@@H](CCSC)C(=O)N[C@@H](CO)C(=O)O [JM #20] (H-ILRWSRKMPCMS-OH; C-terminus assumed)
- IC50 [1]: < 5 nM

Molecule: CC[C@H](C)[C@H](N)C(=O)N[C@@H](CCSC)C(=O)N[C@@H](CCCNC(=N)N)C(=O)N[C@@H](Cc1c[nH]c2ccccc12)C(=O)N[C@@H](CO)C(=O)N[C@@H](CCCNC(=N)N)C(=O)N[C@@H](CCCCN)C(=O)N[C@@H](CCSC)C(=O)N1CCC[C@H]1C(=O)N[C@@H](CS)C(=O)N[C@H](C(=O)N[C@@H](CO)C(=O)O)C(C)C [JM #17] (H-IMRWSRKMPCVS-OH; C-terminus assumed)
- IC50 [1]: < 5 nM

Molecule: SC033: PEG-coupled peptide JM #21, average molecular mass 5 kDa (ILRWSRKLPCVS; also: PEG-coupled, average 5 kDa, attachment site not given here)
- remaining (relative) activity after 8 hours of plasma incubation ([2]; human, plasma, 8 h): 72%
- anti-HIV-1 activity (in words) [1]: comparable to the state of the art CXCR4-antagonist AMD3100 and JM #21

Molecule: CSCC[C@H](NC(=O)[C@H](N)CC(C)C)C(=O)N[C@@H](CCCNC(=N)N)C(=O)N[C@@H](Cc1c[nH]c2ccccc12)C(=O)N[C@@H](CO)C(=O)N[C@@H](CCCNC(=N)N)C(=O)N[C@@H](CCCCN)C(=O)N[C@@H](CCSC)C(=O)N1CCC[C@H]1C(=O)N[C@@H](CS)C(=O)N[C@H](C(=O)N[C@@H](CO)C(=O)O)C(C)C [JM #36] (H-[dL]MRWSRKMPCVS-OH; C-terminus assumed)
- remaining (relative) activity after 2 hours of plasma incubation ([2]; human plasma): 85%
- remaining (relative) activity after 8 hours of plasma incubation ([2]; human plasma, 8 hours): 81%

Molecule: CSCC[C@@H](N)C(=O)N[C@@H](CC(C)C)C(=O)N[C@@H](CCCNC(=N)N)C(=O)N[C@@H](Cc1c[nH]c2ccccc12)C(=O)N[C@@H](CO)C(=O)N[C@@H](CCCNC(=N)N)C(=O)N[C@@H](CCCCN)C(=O)N[C@@H](CCSC)C(=O)N1CCC[C@H]1C(=O)N[C@@H](CS)C(=O)N[C@H](C(=O)N[C@@H](CO)C(=O)O)C(C)C [JM #28] (H-[dM]LRWSRKMPCVS-OH; C-terminus assumed)
- remaining (relative) activity after 2 hours of plasma incubation ([2]; human plasma): 96%
- remaining (relative) activity after 8 hours of plasma incubation ([2]; human plasma, 8 hours): 77%
- IC50 [1]: 246 nM

Molecule: ILRWSRKLPCVS (not fully specified (residue 7)) [JM#213]
- IC50, HIV inhibition assay [4]: 5 to 10 nM

Molecule: [dL]LRWSRK-NH2 (not fully specified (residue 7)) [JM#235]
- IC50, HIV inhibition assay [4]: 5 to 10 nM

Molecule: [dI]LRWSRK-NH2 (not fully specified (residue 7)) [JM#238]
- IC50, HIV inhibition assay [4]: 5 to 10 nM

B1: JM#180 (peptide)
peptide: [dL]MRWSRK(Palmitoyl)-NH2
modifications: N-terminus assumed
SMILES: CCCCCCCCCCCCCCCC(=O)NCCCC[C@H](NC(=O)[C@H](CCCNC(=N)N)NC(=O)[C@H](CO)NC(=O)[C@H](Cc1c[nH]c2ccccc12)NC(=O)[C@H](CCCNC(=N)N)NC(=O)[C@H](CCSC)NC(=O)[C@H](N)CC(C)C)C(N)=O
- IC50, HIV inhibition assay [4]: 5 to 10 nM

Molecule: ILRWSRK(Ole)LPCVS (reading uncertain) [JM#183]
- IC50, HIV inhibition assay [4]: 5 to 10 nM

Molecule: [dL]LRWSRK-NH2 (not fully specified (residue 7)) [JM#257]
- IC50, HIV inhibition assay [4]: 5 to 10 nM

— patent US20230131339A1, “EPI-X4 BASED PEPTIDES AND DERIVATIVES THEREOF” (Universitaet Ulm, priority 2020, published 2023)
